Experimental data taken from ChEMBL document CHEMBL1201862, “PubChem BioAssay data set” (2004).
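Protocol summary: plate cells (96-well), add compound at 5 concentrations, incubate 48 h, interpolate endpoints linearly. Abbreviation: GI50, concentration required for 50% inhibition of growth.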 Active and inactive are the calls of the source. Cut-off read from the data, not from the text of the source: active = GI50 up to about 1.1 µM and inactive = higher.

What was measured:
Test in all cases: NCI tumour cell line growth inhibition, 48 h
[1] = test system: ACHN
[2] = test system: CCRF-CEM
[3] = test system: HCC 2998
[4] = test system: HT-29
[5] = test system: MDA-MB-231
[6] = test system: MDA-MB-435
[7] = test system: Malme-3M
[8] = test system: NCI-H226
[9] = test system: NCI-H23
[10] = test system: RPMI-8226
[11] = test system: SF-295
[12] = test system: SF-539
[13] = test system: SK-MEL-28
[14] = test system: SK-MEL-5
[15] = test system: SN12C
[16] = test system: SNB-19
[17] = test system: CAKI-1
[18] = test system: NCI-H522
[19] = test system: OVCAR-3
[20] = test system: PC-3

Measured: GI50

O=C(CCC(=O)CC(O)(C(F)(F)F)C(F)(F)F)CC(O)(C(F)(F)F)C(F)(F)F
inactive: [1] 33.7 µM | [2] 42.1 µM | [3] 58.1 µM | [4] 29.7 µM | [5] 29.4 µM | [6] 47.9 µM | [7] 42.1 µM | [8] 18.8 µM | [9] 30.8 µM | [10] 26.7 µM | [11] 32.1 µM | [12] 67.6 µM | [13] > 100 µM | [14] 55.7 µM | [15] 42.6 µM | [16] 24 µM

Cc1ccc(Cc2n[nH]c(=O)n2Nc2ccccc2)cc1
inactive: [1] > 100 µM | [17] > 100 µM | [2] > 100 µM | [3] > 100 µM | [4] > 100 µM | [5] > 100 µM | [6] > 100 µM | [7] > 100 µM | [8] > 100 µM | [9] > 100 µM | [18] > 100 µM | [19] > 100 µM | [10] > 100 µM | [11] > 100 µM | [12] > 100 µM | [13] 92.3 µM | [14] > 100 µM | [15] > 100 µM | [16] > 100 µM

CC(=O)N1CCN(C=S)CC1
inactive: [1] > 100 µM | [17] > 100 µM | [2] > 100 µM | [3] > 100 µM | [4] > 100 µM | [7] > 100 µM | [8] > 100 µM | [9] > 100 µM | [18] > 100 µM | [19] > 100 µM | [10] > 100 µM | [11] > 100 µM | [12] > 100 µM | [13] > 100 µM | [14] > 100 µM | [15] > 100 µM | [16] > 100 µM

CC(=O)NNc1nc(C)c(C(=O)NNC(=O)C(=O)Nc2c(C)cccc2C)s1
inactive: [1] 37.6 µM | [17] 65.6 µM | [2] 32 µM | [3] 95.9 µM | [4] 36.6 µM | [7] 53.1 µM | [8] > 100 µM | [9] 24.7 µM | [18] 16.1 µM | [19] 26.4 µM | [10] 26.2 µM | [11] 40.6 µM | [12] 60.5 µM | [13] 76.6 µM | [14] 53 µM | [15] > 100 µM | [16] 61 µM

Cc1ccc(-c2cn3c(nc4ccccc43)c(/C=C/c3ccco3)n2)cc1
inactive: [1] > 100 µM | [3] > 100 µM | [4] > 100 µM | [5] > 100 µM | [6] 29.2 µM | [7] 65.6 µM | [8] > 100 µM | [9] 37 µM | [19] 49.8 µM | [10] 21 µM | [12] > 100 µM | [13] 58.1 µM | [14] 34.8 µM | [15] 86.9 µM | [16] > 100 µM

c1ccc2c(c1)N=C(c1cccc3ccccc13)CC(c1cccc3ccccc13)S2 (stereo unspecified)
inactive: [1] 10.2 µM | [17] 4.43 µM | [2] 2.05 µM | [3] 4.21 µM | [4] 3.33 µM | [7] 14.9 µM | [8] 9.84 µM | [9] 3.57 µM | [18] 2.54 µM | [19] 2.77 µM | [10] 1.9 µM | [11] 9.77 µM | [12] 4.92 µM | [13] 7.36 µM | [14] 8.95 µM | [15] 4.79 µM | [16] 4.33 µM

COc1ccc(/C=C/c2cc(OC)c(OC)c(OC)c2)cc1OC
inactive: [1] > 100 µM | [17] > 83.6 µM | [2] > 100 µM | [3] > 100 µM | [4] > 72.8 µM | [7] > 100 µM | [8] > 100 µM | [9] > 100 µM | [18] 68.5 µM | [19] > 100 µM | [10] > 100 µM | [11] 65.2 µM | [12] > 86.1 µM | [13] 55.6 µM | [14] > 74.5 µM | [15] > 100 µM | [16] > 100 µM

CCOC(=O)c1ccc(C)c(/N=N/N(C)C)c1
inactive: [1] > 100 µM | [17] > 100 µM | [2] > 100 µM | [3] > 100 µM | [4] > 100 µM | [7] > 100 µM | [8] > 100 µM | [9] > 100 µM | [18] > 100 µM | [19] > 100 µM | [10] > 100 µM | [11] > 100 µM | [12] > 100 µM | [13] > 100 µM | [14] > 100 µM | [15] > 100 µM | [16] 86.7 µM

CCC(C)OC(=O)C1C2CCC(O2)C1C(=O)O (stereo unspecified)
inactive: [1] > 72.4 µM | [17] > 100 µM | [2] > 100 µM | [3] > 100 µM | [4] > 43.4 µM | [7] > 100 µM | [8] > 100 µM | [9] > 100 µM | [18] > 100 µM | [19] > 100 µM | [10] > 48.3 µM | [11] > 100 µM | [12] 99.8 µM | [13] > 100 µM | [14] > 100 µM | [15] > 100 µM | [16] > 100 µM

CCOC1=C2N=C(C(CC)c3ccc(F)cc3)N=C2C(=O)c2ccccc21 (stereo unspecified)
inactive: [1] 19.1 µM | [17] 22 µM | [2] 40 µM | [3] 29.9 µM | [4] 19.2 µM | [7] 23.3 µM | [8] 16 µM | [9] 25.3 µM | [18] 22.3 µM | [19] 32.9 µM | [10] 23.8 µM | [11] 21 µM | [12] 16.3 µM | [13] 36.5 µM | [14] 13.9 µM | [15] 16.3 µM | [16] 51.4 µM

CCCCCC(=O)C(C)C1=Nc2nnc(CCCCCCCc3nnc4n3C(=O)C(C(C)C(=O)CCCCC)=N4)n2C1=O (stereo unspecified)
inactive: [1] > 100 µM | [17] > 100 µM | [2] > 100 µM | [3] > 100 µM | [4] > 100 µM | [7] > 100 µM | [8] > 100 µM | [9] > 100 µM | [18] > 100 µM | [19] > 100 µM | [10] > 100 µM | [11] > 100 µM | [12] > 100 µM | [13] > 100 µM | [14] > 100 µM | [15] > 100 µM | [16] > 100 µM

O=C(O)CCC(NC(=O)c1ccc(Nc2nc3ccccc3nc2C(=O)O)cc1)C(=O)O (stereo unspecified)
inactive: [1] > 100 µM | [17] > 100 µM | [2] > 100 µM | [3] > 100 µM | [4] > 100 µM | [5] > 100 µM | [6] > 100 µM | [7] > 100 µM | [9] > 100 µM | [18] > 100 µM | [19] > 100 µM | [10] > 100 µM | [11] > 100 µM | [12] > 100 µM | [13] > 100 µM | [14] > 100 µM | [15] > 100 µM | [16] > 100 µM

CN(C(=O)C12C3C4C5C3C1(C(=O)C13C6C7C8C6C1C8C73)C5C42)C(C)(C)C (stereo unspecified)
inactive: [1] > 50 µM | [17] > 50 µM | [2] > 24 µM | [3] > 50 µM | [4] > 37.8 µM | [7] > 50 µM | [8] > 50 µM | [9] > 50 µM | [18] > 32.4 µM | [19] > 50 µM | [10] > 27.3 µM | [11] > 50 µM | [12] > 50 µM | [13] > 50 µM | [14] > 50 µM | [15] > 50 µM | [16] > 50 µM

Clc1ccc(SCCCCCCCCCCSc2ccc(Cl)cc2)cc1
inactive: [1] > 58.7 µM | [17] > 100 µM | [2] > 100 µM | [3] > 46.1 µM | [4] > 100 µM | [7] > 56.5 µM | [8] > 100 µM | [9] > 100 µM | [18] > 100 µM | [19] > 56.8 µM | [10] > 100 µM | [11] > 57.9 µM | [12] > 100 µM | [13] > 100 µM | [14] > 55.1 µM | [15] > 100 µM | [16] > 100 µM

C[C@H]1C(=O)CC[C@]2(C)CCC(C(C)(C)O)CC12O (stereo partly specified)
inactive: [1] > 100 µM | [17] > 100 µM | [2] > 100 µM | [3] > 100 µM | [4] > 100 µM | [7] > 100 µM | [8] > 100 µM | [9] > 100 µM | [18] > 100 µM | [19] > 100 µM | [10] > 100 µM | [11] > 100 µM | [12] > 100 µM | [13] > 100 µM | [14] > 100 µM | [15] > 100 µM | [16] > 100 µM

C/C(=N\NC(=O)c1ccncc1)c1ccccc1F
inactive: [1] > 10 µM | [17] > 10 µM | [2] > 10 µM | [3] > 10 µM | [7] > 10 µM | [8] > 10 µM | [9] > 10 µM | [19] > 10 µM | [20] > 10 µM | [10] > 10 µM | [11] > 10 µM | [12] > 10 µM | [13] > 10 µM | [14] > 10 µM | [15] > 10 µM | [16] > 10 µM
